# Reference: patent US11319316B2, “Compounds that induce degradation of anti-apoptotic Bcl-2 family proteins and the uses thereof” (BioVentures, LLC, priority 2016, dated 2022)
# pEC50: −log10 of the molar value.
# Tests used:
# Format in all cases: cell-based
# Normal WI38 (NSC) = assay: Viability of normal WI38 cells (NSC), 72 h, PI staining and flow cytometry; details: Homo sapiens, WI-38, viable (PI-) cells as percentage of vehicle control
# Experimental: (§1) Normal WI38 (NSC) and IR-induced senescent WI38 cells (IR-SC) were incubated with vehicle or increasing concentrations of compounds of Formula (I) or Formula (II) for 72 hours. The cells were digested with 0.25% trypsin and 1 mM EDTA, and harvested in PBS containing 2% FBS. After incubation with propidium iodide (PI, 100 ng/ml) in PBS at room temperature for 1 minute, cells were centrifuged at 1,200 rpm for 6 minutes to remove PI and then resuspended in PBS containing 2% FBS for analysis using a flow cytometer. Viable cells (PI-cells) were analyzed by flow cytometry at a constant flow rate to count the number of cells and calculated as a percentage of control cells treated with vehicle. Table 1 depicts the EC50 values of the compounds of Formula (I) and compounds of Formula (II) against normal WI38 and IR-induced senescent WI38.
# [1] = test system: IR-induced senescent WI38 cells (IR-SC); assay: Viability of IR-induced senescent WI38 cells (IR-SC), 72 h, PI staining and flow cytometry; details: for pEC50: Homo sapiens, WI-38, IR-induced senescent WI38 cells, 72 hours, viable (PI-) cells as percentage of vehicle control; for Ratio NSC/SC: ratio of WI38 EC50 in NSC to EC50 in IR-SC; for Selective inhibition of IR-SC WI38 cells versus normal WI38 cells: FIG. 2A, FIG. 2B, increasing concentrations
# Experimental: as §1
# RS4; 11 cancer cells = assay: Cancer cell viability by MTS, 72 h, RS4;11; details: Homo sapiens, RS4;11 cells
# Experimental: (§2) RS4; 11 and NCI-H146 cancer cells were incubated with vehicle or increasing concentrations of compounds of Formula (I) and Formula (II). At 72 hours post-treatment cell viability was measured by MTS and EC50 was calculated as a percentage of control cells treated with vehicle. Table 1 depicts the EC50 values of compounds of Formula (I) and Formula (II) against RS4; 11 and NCI-H146.
# NCI-H146 cancer cells = assay: Cancer cell viability by MTS, 72 h, NCI-H146; details: Homo sapiens
# Experimental: as §2
SMILES,pEC50 (RS4; 11 cancer cells),pEC50 (NCI-H146 cancer cells),pEC50 (Normal WI38 (NSC)),pEC50 [1],Ratio NSC/SC [1],Selective inhibition of IR-SC WI38 cells versus normal WI38 cells [1]
"CC1(C)CCC(CN2CCN(c3ccc(C(=O)NS(=O)(=O)c4ccc(NCC5CCOCC5)c([N+](=O)[O-])c4)c(Oc4cnc5[nH]ccc5c4)c3)CC2)=C(c2ccc(Cl)cc2)C1 [ABT-199, venetoclax, reference compound]",–,–,< 5.00,< 5.00,–,–
"O=C1CCC(N2C(=O)c3cccc(NCCOCCOCCOCc4cn(CCCC(=O)N5CCN(CC#Cc6ccc(OCCCc7sc(N8CCc9cccc(C(=O)Nc%10nc%11ccccc%11s%10)c9C8)nc7C(=O)O)c(F)c6)CC5)nn4)c3C2=O)C(=O)N1 (stereo not shown) [XZ-12906, 2-(8-(benzo[d]thiazol-2-ylcarbamoyl)-3,4-dihydroisoquinolin-2(1H)-yl)-5-(3-(4-(3-(4-(4-(4-((2-(2-(2-(2-(2,6-dioxopiperidin-3-yl)-1,3-dioxoisoindolin-4-ylamino)ethoxy)ethoxy)ethoxy)methyl)-1H-1,2,3-triazol-1-yl)butanoyl)piperazin-1-yl)prop-1-ynyl)-2-fluorophenoxy)propyl)thiazole-4-carboxylic acid]",–,–,–,–,–,selectively inhibit IR-SC WI38 cells but not normal WI 38 cells in a dose dependent manner
"CC(C)(C)OC(=O)N1CCN(CC#Cc2ccc(OCCCc3sc(N4CCc5cccc(C(=O)Nc6nc7ccccc7s6)c5C4)nc3C(=O)O)c(F)c2)CC1 [XZ-13861, 2-(8-(benzo[d]thiazol-2-ylcarbamoyl)-3,4-dihydroisoquinolin-2(1H)-yl)-5-(3-(4-(3-(4-(tert-butoxycarbonyl)piperazin-1-yl)prop-1-ynyl)-2-fluorophenoxy)propyl)thiazole-4-carboxylic acid]",–,–,4.48,5.51,10.51,selectively inhibit IR-SC WI38 cells but not normal WI 38 cells in a dose dependent manner
"O=C1CCC(N2C(=O)c3cccc(NCCOCCOCc4cn(CCCC(=O)N5CCN(CC#Cc6ccc(OCCCc7sc(N8CCc9cccc(C(=O)Nc%10nc%11ccccc%11s%10)c9C8)nc7C(=O)O)c(F)c6)CC5)nn4)c3C2=O)C(=O)N1 (stereo not shown) [XZ-14424, 2-(8-(benzo[d]thiazol-2-ylcarbamoyl)-3,4-dihydroisoquinolin-2(1H)-yl)-5-(3-(4-(3-(4-(4-(4-((2-(2-((2-(2,6-dioxopiperidin-3-yl)-1,3-dioxoisoindolin-4-yl)amino)ethoxy)ethoxy)methyl)-1H-1,2,3-triazol-1-yl)butanoyl)piperazin-1-yl)prop-1-yn-1-yl)-2-fluorophenoxy)propyl)thiazole-4-carboxylic acid]",–,–,5.80,5.85,1.2,–
"Cc1ncsc1-c1ccc(CNC(=O)[C@@H]2C[C@@H](O)CN2C(=O)[C@@H](NC(=O)COCCOCCOCc2cn(CCCC(=O)N3CCN(CC#Cc4ccc(OCCCc5sc(N6CCc7cccc(C(=O)Nc8nc9ccccc9s8)c7C6)nc5C(=O)O)c(F)c4)CC3)nn2)C(C)(C)C)cc1 [XZ-14455, 2-(8-(benzo[d]thiazol-2-ylcarbamoyl)-3,4-dihydroisoquinolin-2(1H)-yl)-5-(3-(2-fluoro-4-(3-(4-(4-(4-((S)-12-((2S,4R)-4-hydroxy-2-((4-(4-methylthiazol-5-yl)benzyl)carbamoyl)pyrrolidine-1-carbonyl)-13,13-dimethyl-10-oxo-2,5,8-trioxa-11-azatetradecyl)-1H-1,2,3-triazol-1-yl)butanoyl)piperazin-1-yl)-prop-1-yn-1-yl)phenoxy)propyl)thiazole-4-carboxylic acid]",< 5.70,< 5.70,5.30,5.83,3.40,–
CC1(C)CCC(c2ccc(Cl)cc2)=C(CN2CCN(c3ccc(C(=O)NS(=O)(=O)c4ccc(N[C@H](CCN5CCN(C(=O)COCCOCCOCCNc6cccc7c6C(=O)N(C6CCC(=O)NC6=O)C7=O)CC5)CSc5ccccc5)c(S(=O)(=O)C(F)(F)F)c4)cc3)CC2)C1 (stereo partly shown) [XZ-14510],6.66,6.95,< 5.00,6.75,>56,–
CC1(C)CCC(c2ccc(Cl)cc2)=C(CN2CCN(c3ccc(C(=O)NS(=O)(=O)c4ccc(N[C@H](CCN5CCN(C(=O)COCCOCCNc6cccc7c6C(=O)N(C6CCC(=O)NC6=O)C7=O)CC5)CSc5ccccc5)c(S(=O)(=O)C(F)(F)F)c4)cc3)CC2)C1 (stereo partly shown) [XZ-14515],6.76,7.10,< 5.00,6.80,>63.27,–
"Cc1ncsc1-c1ccc(CNC(=O)[C@@H]2C[C@@H](O)CN2C(=O)[C@@H](NC(=O)CCC(=O)NCCOCCOCCNC(=O)N2CCC(CNc3ccc(S(=O)(=O)NC(=O)c4ccc(N5CCN(CC6=C(c7ccc(Cl)cc7)CC(C)(C)CC6)CC5)cc4Oc4cnc5[nH]ccc5c4)cc3[N+](=O)[O-])CC2)C(C)(C)C)cc1 [XZ-14528, N1-(2-(2-(2-(4-(((4-N-(2-((1H-pyrrolo[2,3-b]pyridin-5-yl)oxy)-4-(4-((4′-chloro-5,5-dimethyl-3,4,5,6-tetrahydro-(1,1′-biphenyl-2-yl)methyl)piperazin-1-yl)benzoyl)sulfamoyl)-2-nitrophenyl)amino)methyl)piperidine-1-carboxamido)ethoxy)ethoxy)ethyl)-N4-((S)-1-((2S,4R)-4-hydroxy-2-((4-(4-methylthiazol-5-yl)benzyl)carbamoyl)pyrrolidin-1-yl)-3,3-dimethyl-1-oxobutan-2-yl)succinamide]",6.40,< 5.70,< 5.00,< 5.00,–,–

# Second part, led by results:
pEC50 (RS4; 11 cancer cells),pEC50 (NCI-H146 cancer cells),SMILES,pEC50 (Normal WI38 (NSC)),pEC50 [1],Ratio NSC/SC [1],Selective inhibition of IR-SC WI38 cells versus normal WI38 cells [1]
7.80,7.56,"CC1(C)CCC(c2ccc(Cl)cc2)=C(CN2CCN(c3ccc(C(=O)NS(=O)(=O)c4ccc(N[C@H](CCN5CCOCC5)CSc5ccccc5)c(S(=O)(=O)C(F)(F)F)c4)cc3)CC2)C1 [ABT-263, navitoclax, reference compound]",4.90,6.21,20.6,–
7.05,7.19,"CC1(C)CCC(c2ccc(Cl)cc2)=C(CN2CCN(c3ccc(C(=O)NS(=O)(=O)c4ccc(N[C@H](CCN5CCN(C(=O)NCCOCCOCCNc6cccc7c6C(=O)N(C6CCC(=O)NC6=O)C7=O)CC5)CSc5ccccc5)c(S(=O)(=O)C(F)(F)F)c4)cc3)CC2)C1 (stereo partly drawn) [XZ-14509, 4-((R)-3-(4-(N-(4-(4-((2-(4-chlorophenyl)-5,5-dimethylcyclohex-1-enyl)methyl)piperazin-1-yl)benzoyl)sulfamoyl)-2-(trifluoromethylsulfonyl)phenylamino)-4-(phenylthio)butyl)-N-(2-(2-(2-(2-(2,6-dioxopiperidin-3-yl)-1,3-dioxoisoindolin-4-ylamino)ethoxy)ethoxy)ethyl)piperazine-1-carboxamide]",< 5.00,6.65,>44.22,–
5.96,6.29,"CC1(C)CCC(c2ccc(Cl)cc2)=C(CN2CCN(c3ccc(C(=O)NS(=O)(=O)c4ccc(N[C@H](CCN5CCN(C(=S)NCCOCCOCCNc6cccc7c6C(=O)N(C6CCC(=O)NC6=O)C7=O)CC5)CSc5ccccc5)c(S(=O)(=O)C(F)(F)F)c4)cc3)CC2)C1 (stereo partly drawn) [XZ-14516, 4-(4-((2-(4-chlorophenyl)-5,5-dimethylcyclohex-1-enyl)methyl)piperazin-1-yl)-N-(4-((2R)-4-(4-(2-(2-(2-(2-(2,6-dioxopiperidin-3-yl)-1,3-dioxoisoindolin-4-ylamino)ethoxy)ethoxy)ethylcarbamothioyl)piperazin-1-yl)-1-(phenylthio)butan-2-ylamino)-3-(trifluoromethylsulfonyl)phenylsulfonyl)benzamide]",< 5.00,7.04,>109,–
7.33,5.96,CC1(C)CCC(CN2CCN(c3ccc(C(=O)NS(=O)(=O)c4ccc(NCC5CCN(C(=O)COCCOCCOCCNc6cccc7c6C(=O)N(C6CCC(=O)NC6=O)C7=O)CC5)c([N+](=O)[O-])c4)c(Oc4cnc5[nH]ccc5c4)c3)CC2)=C(c2ccc(Cl)cc2)C1 (stereo not shown) [XZ-14522],< 5.00,< 5.00,–,–
6.79,5.90,"CC1(C)CCC(CN2CCN(c3ccc(C(=O)NS(=O)(=O)c4ccc(NCC5CCN(C(=O)CCCn6cc(COCCOCCOCCNc7cccc8c7C(=O)N(C7CCC(=O)NC7=O)C8=O)nn6)CC5)c([N+](=O)[O-])c4)c(Oc4cnc5[nH]ccc5c4)c3)CC2)=C(c2ccc(Cl)cc2)C1 (stereo not shown) [XZ-14523, 2-((1H-pyrrolo[2,3-b]pyridin-5-yl)oxy)-4-(4-((4′-chloro-5,5-dimethyl-3,4,5,6-tetrahydro-[1,1′-biphenyl]-2-yl)methyl)piperazin-1-yl)-N-((4-(((1-(4-(4-((2-(2-(2-((2-(2,6-dioxopiperidin-3-yl)-1,3-dioxoisoindolin-4-yl)amino)ethoxy)ethoxy)ethoxy)methyl)-1H-1,2,3-triazol-1-yl)butanoyl)piperidin-4-yl)methyl)amino)-3-nitrophenyl)sulfonyl)benzamide]",< 5.00,< 5.00,–,–
